Earlier results in publication PMC8342319, “Predicting blood-to-plasma concentration ratios of drugs from chemical structures and volumes of distribution in humans” (Molecular Diversity, 2021).
Where two headings read alike, the source gives them in different places.

Experiments:
plasma protein = conditions: cited from earlier work; for fp_Human (free fraction in plasma): human, collected value, median if multiple values were reported, ref: Table S1
[1] = human, cited from earlier work; for Rb_Human: blood-to-plasma concentration ratio, median if multiple values reported, Reference of Table S1
[2] = human, cited from earlier work
[3] = human, intravenous, cited from earlier work
[4] = median if multiple values were reported, ref numbers in Table S1
[5] = intravenous, median if multiple values were reported, ref numbers in Table S1
[6] = free fraction in human plasma, median if multiple values reported, Reference of Table S1
[7] = intravenous, median if multiple values reported, Reference of Table S1
[8] = median if multiple values reported, Reference of Table S1

Row | Compound | fp_Human (free fraction in plasma) (plasma protein) | Rb_Human (blood-to-plasma concentration ratio) [1, 4] | in vivo Vd_(L/kg)_Human [2, 5] | in vivo CL_(L/hr/kg)_Human [3, 4] | Rb_Human (blood-to-plasma concentration ratio) ([1]; plasma) | in vivo Vd_(L/kg)_Human ([2]; in vivo, iv) | fp_Human (plasma protein; [6]) | Rb_Human [1] | in vivo Vd_(L/kg)_Human [2, 7] | in vivo CL_(L/hr/kg)_Human [3, 8] | fp_Human (plasma protein)
1 | Nc1nc(NC2CC2)c2ncn([C@H]3C=C[C@@H](CO)C3)c2n1 [Abacavir] | 0.500 | 1.03 | 0.840 L/kg | 0.780 L/h/kg |  |  |  |  |  |  | 
2 | NCC[C@H](O)C(=O)N[C@@H]1C[C@H](N)[C@@H](O[C@H]2O[C@H](CN)[C@@H](O)[C@H](O)[C@H]2O)[C@H](O)[C@H]1O[C@H]1O[C@H](CO)[C@@H](O)[C@H](N)[C@H]1O [Amikacin] | 0.880 | 0.97 | 0.160 L/kg | 0.066 L/h/kg |  |  |  |  |  |  | 
3 | COC(=O)[C@H]1[C@@H](OC(=O)c2ccccc2)C[C@@H]2CC[C@H]1N2C [Cocaine] | 0.120 |  |  | 1.920 L/h/kg | 1.00 | 2.000 L/kg |  |  |  |  | 
4 | CC(=O)O[C@@]12CO[C@@H]1C[C@H](O)[C@@]1(C)C(=O)[C@H](O)C3=C(C)[C@@H](OC(=O)[C@H](O)[C@@H](NC(=O)OC(C)(C)C)c4ccccc4)C[C@@](O)([C@@H](OC(=O)c4ccccc4)[C@H]21)C3(C)C [Docetaxel] | 0.040 | 0.55 | 2.100 L/kg | 1.098 L/h/kg |  |  |  |  |  |  | 
5 | Cc1ccc(C)c(OCCCC(C)(C)C(=O)O)c1 [Gemfibrozil] | 0.005 | 0.65 | 4.350 L/kg | 0.102 L/h/kg |  |  |  |  |  |  | 
6 | CN1C(=O)NC(=O)C(C)(C2=CCCCC2)C1=O (centres unmarked) [Hexobarbital] | 0.575 | 1.00 | 1.100 L/kg | 0.204 L/h/kg |  |  |  |  |  |  | 
7 | O=[N+]([O-])O[C@H]1CO[C@H]2[C@@H]1OC[C@H]2O[N+](=O)[O-] [Isosorbide Dinitrate] | 0.640 | 1.25 | 0.975 L/kg | 1.860 L/h/kg |  |  |  |  |  |  | 
8 | COC(=O)C1=C(C)NC(C)=C(C(=O)OC(C)C)C1c1cccc2nonc12 (centres unmarked) [Isradipine] | 0.040 | 0.55 | 1.500 L/kg | 1.560 L/h/kg |  |  |  |  |  |  | 
9 | C[C@@H]1CN([C@H]2CC[C@](C#N)(c3ccc(F)cc3)CC2)CC[C@]1(C(=O)O)c1ccccc1 [Levocabastine] | 0.452 | 1.20 | 1.170 L/kg | 0.026 L/h/kg |  |  |  |  |  |  | 
10 | O=C1Nc2ccc(Cl)cc2C(c2ccccc2Cl)=NC1O (centres unmarked) [Lorazepam] | 0.074 | 1.10 | 6.850 L/kg | 0.066 L/h/kg |  |  |  |  |  |  | 
11 | COCC(=O)O[C@]1(CCN(C)CCCc2nc3ccccc3[nH]2)CCc2cc(F)ccc2[C@@H]1C(C)C [Mibefradil] | 0.006 | 0.64 | 3.100 L/kg | 0.240 L/h/kg |  |  |  |  |  |  | 
12 | COc1c(C)c2c(c(O)c1C/C=C(\C)CCC(=O)O)C(=O)OC2 [Mycophenolic acid] | 0.009 | 0.69 | 16.600 L/kg | 0.199 L/h/kg |  |  |  |  |  |  | 
13 | C=C1CC[C@@]2(O)[C@H]3Cc4ccc(O)c5c4[C@@]2(CCN3CC2CC2)[C@H]1O5 [Nalmefene] | 0.650 | 1.11 | 8.200 L/kg | 0.900 L/h/kg |  |  |  |  |  |  | 
14 | OC(CNCC(O)C1CCc2cc(F)ccc2O1)C1CCc2cc(F)ccc2O1 (centres unmarked) [Nebivolol] | 0.020 | 1.20 | 11.000 L/kg | 0.840 L/h/kg |  |  |  |  |  |  | 
15 | O=C1c2cccc3c2[C@H](CCC3)CN1[C@@H]1CN2CCC1CC2 [Palonosetron] | 0.380 | 1.20 | 6.300 L/kg | 0.156 L/h/kg |  |  |  |  |  |  | 
16 | c1ccc(C2(N3CCCCC3)CCCCC2)cc1 [Phencyclidine] |  |  |  |  |  |  | 0.350 | 0.94 | 6.550 L/kg | 0.306 L/h/kg | 
17 | CC[C@H](C)C(=O)O[C@H]1C[C@H](O)C=C2C=C[C@H](C)[C@H](CC[C@@H](O)C[C@@H](O)CC(=O)O)[C@H]21 [Pravastatin] |  |  |  |  |  |  | 0.500 | 0.59 | 0.460 L/kg | 0.840 L/h/kg | 
18 | CCc1nc(N)nc(N)c1-c1ccc(Cl)cc1 [Pyrimethamine] |  |  |  |  |  |  | 0.095 | 0.98 | 0.430 L/kg | 0.003 L/h/kg | 
19 | CCOc1cc(CC(=O)N[C@@H](CC(C)C)c2ccccc2N2CCCCC2)ccc1C(=O)O [Repaglinide] |  |  |  |  |  |  | 0.015 | 0.55 | 0.350 L/kg | 0.513 L/h/kg | 
20 | Cc1nc2sccn2c(=O)c1CCN1CCC(=C(c2ccc(F)cc2)c2ccc(F)cc2)CC1 [Ritanserin] |  |  |  |  |  |  | 0.009 | 0.65 | 1.410 L/kg | 0.031 L/h/kg | 
21 | CCCN1CCCC[C@H]1C(=O)Nc1c(C)cccc1C [Ropivacaine] |  |  |  |  |  |  | 0.065 | 0.81 | 0.750 L/kg | 0.330 L/h/kg | 
22 | CN(CCOc1ccc(CC2SC(=O)NC2=O)cc1)c1ccccn1 (centres unmarked) [Rosiglitazone] |  |  |  |  |  |  | 0.002 | 0.57 |  | 0.039 L/h/kg | 
23 | C#CCN(C)[C@H](C)Cc1ccccc1 [Selegiline] |  |  |  |  |  | 1.900 L/kg |  | 1.73 |  | 1.200 L/h/kg | 0.095
24 | Cc1cn([C@H]2C=C[C@@H](CO)O2)c(=O)[nH]c1=O [Stavudine] |  |  |  |  |  |  | 1.000 | 1.30 | 0.670 L/kg | 0.492 L/h/kg | 
25 | CCOc1ccccc1OCCN[C@H](C)Cc1ccc(OC)c(S(N)(=O)=O)c1 [Tamsulosin] |  |  |  |  |  |  | 0.010 | 0.55 | 0.210 L/kg | 0.037 L/h/kg | 
26 | CCCCCNC(=N)N/N=C/c1c[nH]c2ccc(OC)cc12 [Tegaserod] |  |  |  |  |  |  | 0.020 | 0.72 | 5.300 L/kg | 1.080 L/h/kg | 
27 | CCCc1nc2c(C)cc(-c3nc4ccccc4n3C)cc2n1Cc1ccc(-c2ccccc2C(=O)O)cc1 [Telmisartan] |  |  |  |  |  |  | 0.004 | 1.22 | 6.295 L/kg | 0.504 L/h/kg | 
28 | COc1cc2nc(N3CCN(C(=O)C4CCCO4)CC3)nc(N)c2cc1OC (centres unmarked) [Terazosin] |  |  |  |  |  |  | 0.080 | 0.84 |  | 0.066 L/h/kg | 
29 | Tetracycline |  |  |  |  |  |  | 0.780 | 1.70 |  | 0.090 L/h/kg | 
